Experimental data as given in patent US20200255478A1, “NOVEL COMPOUNDS ACTIVATING THE NRF2 PATHWAY” (Almirall, S.A., priority 2017, published 2020).
Where two headings read alike, the source gives them in different places. Starred links: 1 amine or outer side, 2 acyl side, 3 side chain; linkers in the order of their positions; H or OH if unused. Positions of bridges follow the written chain, without caps; N, C: chain ends. Non-standard residues stand in square brackets, D forms with d. Residues, ends and D or L forms follow the SMILES beside them. *: point of attachment. Trp(2-yl) = O=C([C@H](Cc1c([*:3])[nH]c2ccccc12)N[*:1])[*:2]; X8 = O=C([C@H](Cc1cccc([*:3])c1)N[*:1])[*:2]; X7 = c1ccc(-c2ccccc2C[*:2])c(C[*:1])c1; mXylylene = c1cc(C[*:1])cc(C[*:2])c1; X2 = c1ccc2cc(C[*:2])c(C[*:1])cc2c1; X6 = c1ccc2nc(C[*:2])c(C[*:1])nc2c1; Stearoyl = CCCCCCCCCCCCCCCCCC(=O)*; pXylylene = c1cc(C[*:2])ccc1C[*:1]; βAla = NCCC(=O)O

Molecular target: Keap1-Maltose Binding Protein (MBP tag) (Homo sapiens, UniProt Q14145)
Experiment: Nrf2-Keap1 HTRF (TR-FRET) binding assay: displacement of biotinylated ETGE peptide from Keap1-MBP
[1] = HTRF (TR-FRET), displacement of ETGE-biotin from Keap1-MBP, values banded into grades, read-out: Binding (IC50) ETGE-Keap1

Chain of Keap1-Maltose Binding Protein (MBP tag) (Q14145 whole entry): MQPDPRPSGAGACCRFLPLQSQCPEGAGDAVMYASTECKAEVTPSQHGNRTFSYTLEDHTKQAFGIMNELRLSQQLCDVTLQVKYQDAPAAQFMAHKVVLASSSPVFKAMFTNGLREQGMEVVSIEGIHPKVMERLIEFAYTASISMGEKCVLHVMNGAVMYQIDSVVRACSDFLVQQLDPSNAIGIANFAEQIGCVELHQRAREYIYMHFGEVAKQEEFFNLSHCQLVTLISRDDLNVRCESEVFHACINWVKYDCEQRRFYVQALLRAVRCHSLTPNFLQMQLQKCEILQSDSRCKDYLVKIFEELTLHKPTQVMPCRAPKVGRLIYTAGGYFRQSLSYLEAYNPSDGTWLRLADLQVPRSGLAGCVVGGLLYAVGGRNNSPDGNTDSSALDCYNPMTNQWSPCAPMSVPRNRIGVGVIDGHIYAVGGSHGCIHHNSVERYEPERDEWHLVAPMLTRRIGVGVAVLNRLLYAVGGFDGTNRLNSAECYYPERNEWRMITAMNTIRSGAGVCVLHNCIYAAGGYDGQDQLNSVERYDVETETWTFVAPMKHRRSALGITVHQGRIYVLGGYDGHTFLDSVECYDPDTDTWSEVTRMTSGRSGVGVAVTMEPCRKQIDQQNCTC

SMILES | IC50 | IC50 [1]
CC(=O)N[C@H]1C[C@H]2C(=O)N[C@@H](CCC(N)=O)C(=O)N[C@H]3CSCc4ccccc4CSC[C@H](NC(=O)[C@H](CCC(=O)O)NC(=O)CNC(=O)[C@H]([C@@H](C)O)NC(=O)[C@H](CCC(=O)O)NC(=O)[C@@H]4CCCN4C(=O)[C@H](CC(=O)O)NC3=O)C(=O)N[C@@H](CC(C)C)C(=O)N3CCC[C@@H]3C(=O)N2C1 [Example 64, {[&^1Pro((4S)-NH-Acetyl)-Gln-Cys(&^2)-Asp-Pro-Glu-Thr-Gly-Glu-Cys(&^3)-Leu-D-Pro&^1][&^2(1,2-phenylenediy1)dimethylene&^3]}] | < 1 nM | –
CCCCCCCCCCCCCCCCCC(=O)NCCC(=O)N[C@@H](CC(C)C)C(=O)N[C@@H](CCC(N)=O)C(=O)N[C@H]1CSCc2nc3ccccc3nc2CSC[C@@H](C(=O)N[C@@H](CC(C)C)C(=O)N2CCC[C@H]2C(N)=O)NC(=O)[C@H](CCC(=O)O)NC(=O)CNC(=O)[C@H]([C@@H](C)O)NC(=O)[C@H](CCC(=O)O)NC(=O)[C@@H]2CCCN2C(=O)[C@H](CC(=O)O)NC1=O [Example 61, {[Stearyl-βAla-Leu-Gln-Cys(&^1)-Asp-Pro-Glu-Thr-Gly-Glu-Cys(&^2)-Leu-Pro-NH2][&^1(quinoxaline)2,3-diyldimethylene&^2]}] ({Stearoyl-βAla}-LQCDPETGECLP-NH2; linker 3-10 via X6) | – | 1 to 100 nM
CCCCCCCCCCCCCCCCCC(=O)NCCC(=O)N[C@@H](CC(C)C)C(=O)N[C@@H](CCC(N)=O)C(=O)N[C@H]1CSCc2cc3ccccc3cc2CSC[C@@H](C(=O)N[C@@H](CC(C)C)C(=O)N2CCC[C@H]2C(=O)O)NC(=O)[C@H](CCC(=O)O)NC(=O)CNC(=O)[C@H]([C@@H](C)O)NC(=O)[C@H](CCC(=O)O)NC(=O)[C@H](C)NC(=O)[C@H](CC(=O)O)NC1=O [Example 38, {[Stearyl-βAla-Leu-Gln-Cys(&^1)-Asp-Ala-Glu-Thr-Gly-Glu-Cys(&^2)-Leu-Pro-OH][&^1(naphthalene)2,3-diyldimethylene&^2]}] ({Stearoyl-βAla}-LQCDAETGECLP-OH; linker 3-10 via X2) | – | 1 to 100 nM
CC(C)C[C@H](NC(=O)[C@@H]1CSCc2ccc(cc2)CSC[C@H](NC(=O)[C@H](CCC(N)=O)NC(=O)[C@@H](N)CC(C)C)C(=O)N[C@@H](CC(=O)O)C(=O)N[C@@H](CCC(=O)O)C(=O)N[C@@H](CCC(=O)O)C(=O)N[C@@H]([C@@H](C)O)C(=O)NCC(=O)N[C@@H](CCC(=O)O)C(=O)N1)C(=O)N1CCC[C@H]1C(=O)O [Example 2, {[H-Leu-Gln-Cys(&^1)-Asp-Glu-Glu-Thr-Gly-Glu-Cys(&^2)-Leu-Pro-OH][&^1(1,4-phenylenediyl)dimethylene&^2]}] (H-LQCDEETGECLP-OH; linker 3-10 via pXylylene) | – | 100 to 5000 nM
CCCCCCCCCCCCCCCCCC(=O)NCCC(=O)N[C@@H](CCCCN)C(=O)N[C@@H](CCC(N)=O)C(=O)N[C@H]1CSCc2ccccc2CSC[C@@H](C(=O)N[C@@H](CC(C)C)C(=O)N2CCC[C@H]2C(N)=O)NC(=O)[C@H](CCC(=O)O)NC(=O)CNC(=O)[C@H]([C@@H](C)O)NC(=O)[C@H](CCC(=O)O)NC(=O)[C@@H]2CCCN2C(=O)[C@H](CC(=O)O)NC1=O [Example 47, {[Stearyl-βAla-Lys-Gln-Cys(&^1)-Asp-Pro-Glu-Thr-Gly-Glu-Cys(&^2)-Leu-Pro-NH2][&^1(1,2-phenylenediyl)dimethylene&^2]}] | – | < 1 nM
CC(C)C[C@H](NC(=O)[C@@H]1CSCc2cccc(c2)CSC[C@H](NC(=O)[C@H](CCC(N)=O)NC(=O)[C@@H](N)CC(C)C)C(=O)N[C@@H](CC(=O)O)C(=O)N[C@@H](CCC(=O)O)C(=O)N[C@@H](CCC(=O)O)C(=O)N[C@@H]([C@@H](C)O)C(=O)NCC(=O)N[C@@H](CCC(=O)O)C(=O)N1)C(=O)N1CCC[C@H]1C(=O)NCCC(=O)N[C@@H](Cc1ccc(O)cc1)C(=O)N[C@@H](C)C(=O)N[C@@H](CCCNC(=N)N)C(=O)N[C@@H](C)C(=O)N[C@@H](C)C(=O)N[C@@H](C)C(=O)N[C@@H](CCCNC(=N)N)C(=O)N[C@@H](CCC(N)=O)C(=O)N[C@@H](C)C(=O)N[C@@H](CCCNC(=N)N)C(=O)N[C@@H](C)C(N)=O [Example 13] (H-LQCDEETGECLP[βAla]YARAAARQARA-NH2; linker 3-10 via mXylylene) | – | 1 to 100 nM
CC(C)C[C@@H]1NC(=O)[C@@H]2CCCN2C(=O)[C@H](CC(C)C)NC(=O)[C@@H]2CSc3[nH]c4ccccc4c3C[C@H](NC(=O)[C@H](CCC(N)=O)NC1=O)C(=O)N[C@@H](CC(=O)O)C(=O)N[C@@H](CCC(=O)O)C(=O)N[C@@H](CCC(=O)O)C(=O)N[C@@H]([C@@H](C)O)C(=O)NCC(=O)N[C@@H](CCC(=O)O)C(=O)N2 [Example 11, &^1Leu-Gln-Trp(indol-2-yl-&^2)-Asp-Glu-Glu-Thr-Gly-Glu-Cys(&^2)-Leu-Pro&^1] (cyclo(CLPLQ[Trp(2-yl)]DEETGE); thioether 1-6) | 1 to 100 nM | –
CC(=O)N[C@H]1Cc2cccc(c2)SC[C@@H](C(N)=O)NC(=O)[C@H](CCC(=O)O)NC(=O)CNC(=O)[C@H]([C@@H](C)O)NC(=O)[C@H](CCC(=O)O)NC(=O)[C@H](CCC(=O)O)NC(=O)[C@H](CC(=O)O)NC1=O [Example 22, Acetyl-Phe(m-&^1)-Asp-Glu-Glu-Thr-Gly-Glu-Cys(&^1)-NH2] (Ac-[X8]DEETGEC-NH2; thioether 1-8) | – | 1 to 100 nM
CCCCCCCCCCCC(=O)N[C@H]1C[C@H]2C(=O)N[C@@H](CCC(N)=O)C(=O)N[C@H]3CSCc4ccccc4CSC[C@H](NC(=O)[C@H](CCC(=O)O)NC(=O)CNC(=O)[C@H]([C@@H](C)O)NC(=O)[C@H](CCC(=O)O)NC(=O)[C@@H]4CCCN4C(=O)[C@H](CC(=O)O)NC3=O)C(=O)N[C@@H](CC(C)C)C(=O)N3CCC[C@@H]3C(=O)N2C1 [Example 85, {[&^1Pro((4S)-NH-Lauryl)-Gln-Cys(&^2)-Asp-Pro-Glu-Thr-Gly-Glu-Cys(&^3)-Leu-D-Pro&^1][&^2(1,2-phenylenediyl)dimethylene&^3]}] | < 1 nM | –
CCCCCCCCCCCCCCCCCC(=O)N[C@H]1C[C@@H](C(=O)N[C@@H](CCC(N)=O)C(=O)N[C@H]2CSCc3ccccc3CSC[C@@H](C(=O)N[C@@H](CC(C)C)C(=O)N3CCC[C@@H]3C(N)=O)NC(=O)[C@H](CCC(=O)O)NC(=O)CNC(=O)[C@H]([C@@H](C)O)NC(=O)[C@H](CCC(=O)O)NC(=O)[C@@H]3CCCN3C(=O)[C@H](CC(=O)O)NC2=O)N(C(C)=O)C1 [Example 75, {[Acetyl-Pro((4S)-NH-Stearyl)-Gln-Cys(&^1)-Asp-Pro-Glu-Thr-Gly-Glu-Cys(&^2)-Leu-D-Pro-NH2][&^1(1,2-phenylenediyl)dimethylene^2]}] | 1 to 100 nM | –
CC(C)C[C@H](NC(=O)[C@@H]1CSCc2cccc(c2)CSC[C@H](NC(=O)[C@H](CCC(N)=O)NC(=O)[C@@H](N)CC(C)C)C(=O)N[C@@H](CC(=O)O)C(=O)N[C@@H](C)C(=O)N[C@@H](CCC(=O)O)C(=O)N[C@@H]([C@@H](C)O)C(=O)NCC(=O)N[C@@H](CCC(=O)O)C(=O)N1)C(=O)N1CCC[C@H]1C(=O)NCCC(=O)N[C@@H](CCCNC(=N)N)C(=O)N[C@@H](CCCCN)C(=O)N[C@@H](CCCCN)C(=O)N[C@@H](CCCNC(=N)N)C(=O)N[C@@H](CCCNC(=N)N)C(=O)N[C@@H](CCC(N)=O)C(=O)N[C@@H](CCCNC(=N)N)C(=O)N[C@@H](CCCNC(=N)N)C(=O)N[C@@H](CCCNC(=N)N)C(N)=O [Example 16] | – | < 1 nM
CCCCCCCCCCCCCCCCCC(=O)NCCC(=O)N[C@@H](CC(C)C)C(=O)N[C@@H](CC(C)C)C(=O)N[C@H]1CSCC2(COC2)CSC[C@@H](C(=O)N[C@@H](CC(C)C)C(=O)N[C@@H](CC(C)C)C(N)=O)NC(=O)[C@H](CCC(=O)O)NC(=O)CNC(=O)[C@H]([C@@H](C)O)NC(=O)[C@H](CCC(=O)O)NC(=O)[C@@H]2CCCN2C(=O)[C@H](CC(=O)O)NC1=O [Example 99, {[Stearyl-βAla-Leu-Leu-Cys(&^1)-Asp-Pro-Glu-Thr-Gly-Glu-Cys(&^2)-Leu-Leu-NH2][&^1(3,3-oxetanediyl)dimethylene&^2]}] | – | < 1 nM
Cc1cc(C)c2c(C)c1CSC[C@@H](C(=O)N[C@@H](CC(C)C)C(=O)N[C@@H](CC(C)C)C(=O)NCCC(=O)N[C@@H](CCCNC(=N)N)C(=O)N[C@@H](CCCCN)C(=O)N[C@@H](CCCCN)C(=O)N[C@@H](CCCNC(=N)N)C(=O)N[C@@H](CCCNC(=N)N)C(=O)N[C@@H](CCC(N)=O)C(=O)N[C@@H](CCCNC(=N)N)C(=O)N[C@@H](CCCNC(=N)N)C(=O)N[C@@H](CCCNC(=N)N)C(N)=O)NC(=O)[C@H](CCC(=O)O)NC(=O)CNC(=O)[C@H]([C@@H](C)O)NC(=O)[C@H](CCC(=O)O)NC(=O)[C@@H]1CCCN1C(=O)[C@H](CC(=O)O)NC(=O)[C@@H](NC(=O)[C@H](CC(C)C)NC(=O)[C@@H](N)CC(C)C)CSC2 [Example 59] | – | < 1 nM
CCCCCCCCCCCCCCCC(=O)N[C@H]1C[C@H]2C(=O)N[C@@H](CCC(N)=O)C(=O)N[C@H]3CSCc4ccccc4CSC[C@H](NC(=O)[C@H](CCC(=O)O)NC(=O)CNC(=O)[C@H]([C@@H](C)O)NC(=O)[C@H](CCC(=O)O)NC(=O)[C@@H]4CCCN4C(=O)[C@H](CC(=O)O)NC3=O)C(=O)N[C@@H](CC(C)C)C(=O)N3CCC[C@@H]3C(=O)N2C1 [Example 83, {[&^1Pro((4S)-NH-Palmitoyl)-Gln-Cys(&^2)-Asp-Pro-Glu-Thr-Gly-Glu-Cys(&^3)-Leu-D-Pro&^1][&^2(1,2-phenylenediyl)dimethylene&^3]}] | < 1 nM | –
CC(=O)N[C@H]1CSCc2ccccc2-c2ccccc2CSC[C@@H](C(N)=O)NC(=O)[C@H](CCC(=O)O)NC(=O)CNC(=O)[C@H]([C@@H](C)O)NC(=O)[C@H](CCC(=O)O)NC(=O)[C@H](CCC(=O)O)NC(=O)[C@H](CC(=O)O)NC1=O [Example 24, {[Acetyl-Cys(&^1)-Asp-Glu-Glu-Thr-Gly-Glu-Cys(&^2)-NH2][&^1(1,1′-biphenyl)2,2′-diyldimethylene&^2]}] (Ac-CDEETGEC-NH2; linker 1-8 via X7) | – | 1 to 100 nM
CCCCCCCCCCCCCCCCCC(=O)N[C@H]1C[C@H]2C(=O)N[C@@H](CCC(N)=O)C(=O)N[C@H]3CSCc4cccc(c4)CSC[C@H](NC(=O)[C@H](CCC(=O)O)NC(=O)CNC(=O)[C@H]([C@@H](C)O)NC(=O)[C@H](CCC(=O)O)NC(=O)[C@@H]4CCCN4C(=O)[C@H](CC(=O)O)NC3=O)C(=O)N[C@@H](CC(C)C)C(=O)N3CCC[C@@H]3C(=O)N2C1 [Example 74, {[&^1Pro((4S)-NH-Stearyl)-Gln-Cys(&^2)-Asp-Pro-Glu-Thr-Gly-Glu-Cys(&^3)-Leu-D-Pro&^1][&^2(1,3-phenylenediyl)dimethylene&^3]}] | < 1 nM | –
